Activity calls are given as the source filed them. Cut-off read from the data, not from the text of the source: actives have a measured IC50 and inactives only a lower limit.
Target: T1, Sentrin-specific protease 7 (Homo sapiens, UniProt Q9BQF6)
T1 sequence (Q9BQF6 whole entry): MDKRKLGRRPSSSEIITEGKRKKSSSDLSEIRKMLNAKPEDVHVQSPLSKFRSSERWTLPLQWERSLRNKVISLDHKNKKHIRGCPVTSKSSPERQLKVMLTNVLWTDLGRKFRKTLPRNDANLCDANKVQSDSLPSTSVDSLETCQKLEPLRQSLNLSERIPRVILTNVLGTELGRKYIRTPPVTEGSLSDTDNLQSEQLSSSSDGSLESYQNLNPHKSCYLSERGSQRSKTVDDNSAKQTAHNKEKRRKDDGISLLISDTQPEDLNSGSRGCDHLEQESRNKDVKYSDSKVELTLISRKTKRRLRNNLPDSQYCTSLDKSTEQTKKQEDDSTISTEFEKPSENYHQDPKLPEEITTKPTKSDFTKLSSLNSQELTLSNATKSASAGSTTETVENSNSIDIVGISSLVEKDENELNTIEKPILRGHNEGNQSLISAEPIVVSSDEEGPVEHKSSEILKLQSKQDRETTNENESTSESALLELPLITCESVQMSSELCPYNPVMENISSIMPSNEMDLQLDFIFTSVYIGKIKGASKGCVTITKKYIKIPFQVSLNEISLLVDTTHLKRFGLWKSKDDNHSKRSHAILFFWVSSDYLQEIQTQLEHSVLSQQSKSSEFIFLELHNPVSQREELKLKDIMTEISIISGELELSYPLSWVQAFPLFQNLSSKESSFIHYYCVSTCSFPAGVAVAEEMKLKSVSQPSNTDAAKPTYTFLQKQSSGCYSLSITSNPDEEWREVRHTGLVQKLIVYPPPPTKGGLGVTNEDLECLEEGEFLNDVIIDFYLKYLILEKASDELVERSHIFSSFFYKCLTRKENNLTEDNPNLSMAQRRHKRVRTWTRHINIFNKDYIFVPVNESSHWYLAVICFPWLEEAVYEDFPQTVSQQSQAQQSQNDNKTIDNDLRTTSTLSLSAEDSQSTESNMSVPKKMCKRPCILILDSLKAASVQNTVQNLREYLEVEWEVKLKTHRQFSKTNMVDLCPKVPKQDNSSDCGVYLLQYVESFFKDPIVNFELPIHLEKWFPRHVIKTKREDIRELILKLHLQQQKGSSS
Type: functional
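Note: Luminescence-based dose-response confirmation of ultra-high-throughput screening hits, measuring inhibition of SENP7.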

IC50: 3.69 µM (active)
Structure (SMILES): N#Cc1c(NC(=O)c2ccc(Br)o2)n(-c2ccccc2)c2nc3ccccc3nc12
